Test systems include 786-0 renal; HOP-62 NSCLC; HCT-116 colon; COLO 205 colon; ACHN renal; EKVX NSCLC; SN12C renal; HCT-15 colon; MALME-3M melanoma; KM12 colon.
Experiment in all cases: NCI-60 cell line screen, 48 h

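How tested: cells in 96-well plates exposed to compound for 48 hours at five concentrations. At the GI50, growth is halved. TGI is the concentration that stops growth completely.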

This passage reports TGI and GI50 results from PubChem BioAssay (NCI).

With `S=c1nc(Cl)cc2[nH]c(Cl)cn12`, the TGI with 786-0 renal is more than 100 µM; with HOP-62 NSCLC, more than 100 µM; with HCT-116 colon, 16.6 µM; with COLO 205 colon it was 8.08 µM; in the test on ACHN renal it was more than 100 µM; in the test on EKVX NSCLC, 7.41 µM. Further, the TGI was more than 100 µM with SN12C renal, more than 100 µM in the test on HCT-15 colon, more than 100 µM with MALME-3M melanoma and 33.9 µM in the test on KM12 colon.
With `C[n+]1ccc(-c2c3nc(c(-c4cc[n+](C)cc4)c4ccc([n-]4)c(-c4cc[n+](C)cc4)c4nc(c(-c5cc[n+](C)cc5)c5ccc2[n-]5)C=C4)C=C3)cc1.[I-].[Zn+2]`, the GI50 in the test on 786-0 renal is 8.39 µM; in the test on HOP-62 NSCLC, 19.9 µM; with HCT-116 colon it was 50.5 µM; with COLO 205 colon, 18.3 µM; in the test on ACHN renal it was 15.5 µM; in the test with EKVX NSCLC, 11.1 µM. For the same compound, the GI50 in the test on SN12C renal was 19.7 µM; in the test on HCT-15 colon, more than 100 µM; with MALME-3M melanoma, 18.3 µM; in the test with KM12 colon, 23.3 µM. In addition, the TGI in the test on 786-0 renal is 28 µM; in the test on HOP-62 NSCLC, 44.2 µM; in the test with HCT-116 colon, more than 100 µM; with COLO 205 colon it was 35.8 µM; in the test on ACHN renal, 36.2 µM; with EKVX NSCLC, 47.6 µM. Further, the TGI in the test on SN12C renal is 43.3 µM; in the test with HCT-15 colon, more than 100 µM; with MALME-3M melanoma, 39.8 µM; with KM12 colon, 69.5 µM.
For `OCC1OC(n2cnc3c(Cl)nc(Cl)cc32)C(O)C1O` (stereo not given), the GI50 in the test with 786-0 renal, in the test with HOP-62 NSCLC, in the test with HCT-116 colon, in the test with COLO 205 colon, in the test on ACHN renal and in the test with EKVX NSCLC was more than 100 µM each time. In addition, the GI50 with SN12C renal, with HCT-15 colon, in the test on MALME-3M melanoma and with KM12 colon was more than 100 µM in each case. Moreover, the TGI in the test on 786-0 renal, in the test on HOP-62 NSCLC, with HCT-116 colon, with COLO 205 colon, in the test with ACHN renal and in the test with EKVX NSCLC was more than 100 µM each time. Besides, the TGI with SN12C renal, in the test on HCT-15 colon, in the test with MALME-3M melanoma and in the test on KM12 colon was more than 100 µM throughout.
As to `N#CS.N=C=S.N=C=S.[Cu+2].[NH2-].[NH2-].[NH2-].[NH2-].c1ccc2ncccc2c1`, the GI50 was more than 100 µM with 786-0 renal; 36.9 µM with HOP-62 NSCLC; more than 100 µM in the test on HCT-116 colon; more than 100 µM with COLO 205 colon; more than 100 µM in the test with ACHN renal; 47.4 µM in the test with EKVX NSCLC. Besides, the GI50 was more than 100 µM with SN12C renal, more than 100 µM in the test with HCT-15 colon, more than 100 µM in the test on MALME-3M melanoma and 31.5 µM in the test with KM12 colon. The TGI in the test with 786-0 renal, with HOP-62 NSCLC, with HCT-116 colon, with COLO 205 colon, in the test on ACHN renal and in the test on EKVX NSCLC was more than 100 µM each time. The TGI in the test on SN12C renal, in the test with HCT-15 colon, in the test on MALME-3M melanoma and with KM12 colon was more than 100 µM each time.
Consider `CC1=C([Te]c2ccc(O)cc2)C(=O)c2ccccc2C1=O`, for which the GI50 was 2.61 µM in the test with 786-0 renal; 0.9 µM in the test with HOP-62 NSCLC; 0.715 µM with HCT-116 colon; 0.383 µM with COLO 205 colon; 1.54 µM in the test with ACHN renal; 0.428 µM in the test with EKVX NSCLC. The GI50 with SN12C renal was 2.29 µM; in the test on HCT-15 colon, 1.01 µM; in the test with MALME-3M melanoma, 2.79 µM; in the test on KM12 colon it was 1.3 µM. Moreover, the TGI in the test on 786-0 renal was 7.88 µM; with HOP-62 NSCLC, 5.15 µM; in the test with HCT-116 colon, 2.05 µM; in the test with COLO 205 colon it was 1.4 µM; with ACHN renal, 3.85 µM; in the test with EKVX NSCLC, 6.58 µM. Besides, the TGI amounted to 9.33 µM in the test with SN12C renal, 4.31 µM in the test with HCT-15 colon, 7.12 µM in the test with MALME-3M melanoma and 3.27 µM in the test with KM12 colon.
For the compound `O=c1oc2ccc(-n3c(=O)c4ccccc4c4ccccc4c3=O)cc2c2ccccc12`, the TGI with 786-0 renal, in the test with HOP-62 NSCLC, in the test on HCT-116 colon, in the test with COLO 205 colon, in the test with ACHN renal and in the test with EKVX NSCLC was more than 100 µM throughout. Besides, the TGI in the test on SN12C renal, with HCT-15 colon, in the test on MALME-3M melanoma and in the test on KM12 colon was more than 100 µM in each case.
For `CC1OC(OC2C(CO)OC(O[C@H]3CC[C@@]4(C)C(=CC[C@H]5[C@@H]6C[C@@H]7O[C@]8(CC[C@@H](C)CN8)[C@@H](C)[C@@H]7[C@@]6(C)CC[C@@H]54)C3)C(O)C2O)C(O)C(O)C1O` (stereo not given in full), the TGI in the test on 786-0 renal, in the test on HOP-62 NSCLC, in the test on HCT-116 colon, in the test with COLO 205 colon, in the test with ACHN renal and with EKVX NSCLC was more than 100 µM each time. Also, the TGI with SN12C renal, in the test on HCT-15 colon, with MALME-3M melanoma and in the test on KM12 colon was more than 100 µM throughout.
For the compound `C[C@H](CCCNCCCNCCCN)[C@H]1CC[C@H]2[C@@H]3[C@H](OCCCN)C[C@H]4C[C@H](OCCCN)CC[C@]4(C)[C@H]3C[C@H](OCCCN)[C@]12C`, the GI50 with 786-0 renal was 0.824 µM; in the test with HOP-62 NSCLC, 1.44 µM; in the test with HCT-116 colon, 0.482 µM; in the test with COLO 205 colon, 1.1 µM; in the test on ACHN renal, 1.41 µM; with EKVX NSCLC, 5.43 µM. The GI50 was 1.61 µM in the test with SN12C renal, 3.14 µM with HCT-15 colon, 4.27 µM in the test on MALME-3M melanoma and 0.355 µM in the test with KM12 colon. Further, the TGI in the test on 786-0 renal is 5.49 µM; in the test on HOP-62 NSCLC it was more than 31.5 µM; with HCT-116 colon, 10.2 µM; in the test on COLO 205 colon, 15.3 µM; in the test with ACHN renal, 27.7 µM; in the test with EKVX NSCLC it was more than 43.9 µM. Also, the TGI with SN12C renal is 24.2 µM; with HCT-15 colon, more than 100 µM; in the test with MALME-3M melanoma it was 26 µM; with KM12 colon it was 6.05 µM.
